Measurements taken from ChEMBL document CHEMBL1132853, “Design and synthesis of highly potent fumagillin analogues from homology modeling for a human MetAP-2” (Bioorg Med Chem Lett, 2000).
Values after ≈ are worked out from the molar mass of the structure shown.

Key:
CPAE = assay: Tested in vitro for its ability to inhibit cell proliferation of calf pulmonary artery endothelial cells measured […] by SRB method; format: functional, cell-based, Bos taurus
EL4 = assay: Tested in vitro for its ability to inhibit cell proliferation of lymphoma EL-4 cells measured […] by MTT method; format: functional, cell-based, Mus musculus
P388 = assay: Tested in vitro for its ability to inhibit cell proliferation of murine leukemia P388D1 cells measured […] by MTT method; format: functional, cell-based; settings: Mus musculus
[1] = Bos taurus, CPAE, Artery, read-out: IC50
[2] = Mus musculus, EL4, read-out: IC50

Compound | IC50 (CPAE; [1]) [ng/mL] | IC50 (EL4; [2]) [ng/mL] | IC50 (P388) [ng/mL] | IC50 (CPAE; cpae) [ng/mL] | IC50 (EL4; el4) [ng/mL]
COc1ccc(COC(=O)O[C@@H]2CC[C@]3(CO3)[C@@H]([C@@]3(C)O[C@@H]3CC=C(C)C)[C@@H]2OC)cc1 | 18 (≈ 40.3 nM) | 42 (≈ 94.1 nM) | – | – | –
COc1ccc(CCOC(=O)O[C@@H]2CC[C@]3(CO3)[C@@H]([C@@]3(C)O[C@@H]3CC=C(C)C)[C@@H]2OC)cc1 | 2.3 (≈ 4.99 nM) | 153 (≈ 332 nM) | – | – | –
COc1ccc(/C=C\C(=O)O[C@@H]2CC[C@]3(CO3)[C@@H]([C@@]3(C)O[C@@H]3CC=C(C)C)[C@@H]2OC)cc1 | 24 (≈ 54.2 nM) | 12 (≈ 27.1 nM) | – | – | –
CO[C@@H]1[C@H](O)CC[C@]2(CO2)[C@H]1[C@@]1(C)O[C@@H]1CC=C(C)C | 15 (≈ 53.1 nM) | 5.16 (≈ 18.3 nM) | > 10 | – | –
COc1ccc(CCNC(=O)O[C@@H]2CC[C@]3(CO3)[C@@H]([C@@]3(C)O[C@@H]3CC=C(C)C)[C@@H]2OC)cc1OC | 0.044 (≈ 0.0899 nM) | 0.042 (≈ 0.0858 nM) | > 1 | – | –
COc1cc(CCC(=O)O[C@@H]2CC[C@]3(CO3)[C@@H]([C@@]3(C)O[C@@H]3CC=C(C)C)[C@@H]2OC)cc(OC)c1OC | 44 (≈ 87.2 nM) | 36 (≈ 71.3 nM) | – | – | –
COc1cc(/C=C/C(=O)O[C@@H]2CC[C@]3(CO3)[C@@H]([C@@]3(C)O[C@@H]3CC=C(C)C)[C@@H]2OC)cc(OC)c1OC | – | – | > 1 | 0.00003 (≈ 5.97e-05 nM) | 0.00015 (≈ 0.000298 nM)
CO[C@@H]1[C@H](OC(=O)/C=C/c2ccccc2)CC[C@]2(CO2)[C@H]1[C@@]1(C)O[C@@H]1CC=C(C)C | 0.046 (≈ 0.112 nM) | 0.05 (≈ 0.121 nM) | > 1 | – | –
CO[C@@H]1[C@H](OC(=O)NCc2ccc(C(F)(F)F)cc2)CC[C@]2(CO2)[C@H]1[C@@]1(C)O[C@@H]1CC=C(C)C | 0.0054 (≈ 0.0112 nM) | 0.014 (≈ 0.029 nM) | > 1 | – | –
CO[C@@H]1[C@H](OC(=S)SCc2ccccc2)CC[C@]2(CO2)[C@H]1[C@@]1(C)O[C@@H]1CC=C(C)C | 42 (≈ 93.6 nM) | 14 (≈ 31.2 nM) | – | – | –
COc1ccc(CCCC(=O)O[C@@H]2CC[C@]3(CO3)[C@@H]([C@@]3(C)O[C@@H]3CC=C(C)C)[C@@H]2OC)cc1 | 125 (≈ 273 nM) | 83 (≈ 181 nM) | – | – | –
CO[C@@H]1[C@H](OC(=O)OCc2ccc([N+](=O)[O-])cc2)CC[C@]2(CO2)[C@H]1[C@@]1(C)O[C@@H]1CC=C(C)C | 0.11 (≈ 0.238 nM) | 2.47 (≈ 5.35 nM) | > 1 | – | –
COc1ccc(CNC(=O)O[C@@H]2CC[C@]3(CO3)[C@@H]([C@@]3(C)O[C@@H]3CC=C(C)C)[C@@H]2OC)cc1 | 0.044 (≈ 0.0988 nM) | 0.042 (≈ 0.0943 nM) | > 1 | – | –
CO[C@@H]1[C@H](OC(=O)NCc2ccccc2)CC[C@]2(CO2)[C@H]1[C@@]1(C)O[C@@H]1CC=C(C)C | 0.07 (≈ 0.168 nM) | 0.01 (≈ 0.0241 nM) | > 1 | – | –
COc1ccc(/C=C/C(=O)O[C@@H]2CC[C@]3(CO3)[C@@H]([C@@]3(C)O[C@@H]3CC=C(C)C)[C@@H]2OC)cc1 | – | – | > 1 | 0.00006 (≈ 0.000136 nM) | 0.00019 (≈ 0.000429 nM)
C/C=C/C=C/C(=O)O[C@@H]1CC[C@]2(CO2)[C@@H]([C@@]2(C)O[C@@H]2CC=C(C)C)[C@@H]1OC | 12 (≈ 31.9 nM) | 5.05 (≈ 13.4 nM) | > 1 | – | –
CO[C@@H]1[C@H](OC(=O)/C=C/C=C/C=C/C=C/C(=O)O)CC[C@]2(CO2)[C@H]1[C@@]1(C)O[C@@H]1CC=C(C)C [FUMAGILLIN] | 0.37 (≈ 0.807 nM) | 0.42 (≈ 0.916 nM) | > 1 | – | –
CO[C@@H]1[C@H](OC(=O)NC(=O)CCl)CC[C@]2(CO2)[C@H]1[C@@]1(C)O[C@@H]1CC=C(C)C [O-CHLOROACETYLCARBAMOYLFUMAGILLOL] | 0.04 (≈ 0.0995 nM) | 0.03 (≈ 0.0746 nM) | > 10 | – | –
